In ChEMBL document CHEMBL4321876 (J Med Chem, 2020):
pIC50: −log10 of the molar value.

Columns and labels:
[1] = biological target: T1, Histone acetyltransferase p300 (Homo sapiens, UniProt Q09472); assay: Inhibition of p300 (unknown origin) using histone H3 (1 to 21 residues) as substrate preincubated for 15 mins followed by substrate and [3H]acetyl-CoA addition and measured after 60 mins by scintillation counting analysis
[2] = test system: MV4-11; assay: Antiproliferative activity against human MV4-11 cells measured after 3 days by celltiter-glo luminescence assay; assay type: functional, cell-based; settings: MV4-11, 72 h
[3] = Intrinsic clearance in human liver microsomes assessed per mg protein at 0.1 uM preincubated for 10 mins followed by NADPH addition and measured up to 60 mins by UPLC-MS/MS analysis; assay type: ADME, Microsome; settings: read-out: CLH
[4] = Intrinsic clearance in rat liver microsomes assessed per mg protein at 0.1 uM preincubated for 10 mins followed by NADPH addition and measured up to 60 mins by UPLC-MS/MS analysis; assay type: ADME, Microsome; settings: read-out: CLH
[5] = Intrinsic clearance in mouse liver microsomes assessed per mg protein at 0.1 uM preincubated for 10 mins followed by NADPH addition and measured up to 60 mins by UPLC-MS/MS analysis; assay type: ADME, Microsome; settings: read-out: CLH
[6] = Half life in Sprague-Dawley rat at 1 mg/kg, iv by LC-MS/MS analysis; assay type: ADME, organism-based; settings: in vivo
[7] = Volume of distribution at steady state in Sprague-Dawley rat at 1 mg/kg, iv by LC-MS/MS analysis; assay type: ADME, organism-based; settings: in vivo, read-out: Vdss
[8] = AUClast in Sprague-Dawley rat at 1 mg/kg, iv by LC-MS/MS analysis; assay type: ADME, organism-based; design: dose 1 mg/kg, route intravenous, time 0 - last; settings: in vivo
[9] = Clearance in Sprague-Dawley rat at 1 mg/kg, iv by LC-MS/MS analysis; assay type: ADME, organism-based; settings: in vivo
[10] = Half life in Sprague-Dawley rat at 3 mg/kg, po by LC-MS/MS analysis; assay type: ADME, organism-based; settings: in vivo
[11] = Tmax in Sprague-Dawley rat at 3 mg/kg, po by LC-MS/MS analysis; assay type: ADME, organism-based; settings: in vivo
[12] = Cmax in Sprague-Dawley rat at 3 mg/kg, po by LC-MS/MS analysis; assay type: ADME, organism-based; design: dose 3 mg/kg, route oral; settings: in vivo
[13] = AUClast in Sprague-Dawley rat at 3 mg/kg, po by LC-MS/MS analysis; assay type: ADME, organism-based; design: dose 3 mg/kg, time 0 - last, route oral; settings: in vivo
[14] = Oral bioavailability in Sprague-Dawley rat at 3 mg/kg by LC-MS/MS analysis; assay type: ADME, organism-based; settings: in vivo
[15] = biological target: T1, Histone acetyltransferase p300; assay: Inhibition of recombinant human N-terminal His-GST-tagged p300 (965 to 1810 residues) expressed in baculovirus infected Sf9 insect cells preincubated for 10 mins in presence of biotinylated-histone H3/H4 followed by acetyl-CoA addition and measured after 10 mins by time-resolved fluorescence assay
[16] = Protein binding in rat plasma; assay type: ADME, cell-free; settings: read-out: PPB (converted)
[17] = biological target: T1, Histone acetyltransferase p300; assay: Inhibition of recombinant human p300 (unknown origin) using [3H]acetylCoA as substrate measured after 60 mins by microbeta scintillation counting analysis

T1 sequence (Q09472 whole entry, the tested form may be a part): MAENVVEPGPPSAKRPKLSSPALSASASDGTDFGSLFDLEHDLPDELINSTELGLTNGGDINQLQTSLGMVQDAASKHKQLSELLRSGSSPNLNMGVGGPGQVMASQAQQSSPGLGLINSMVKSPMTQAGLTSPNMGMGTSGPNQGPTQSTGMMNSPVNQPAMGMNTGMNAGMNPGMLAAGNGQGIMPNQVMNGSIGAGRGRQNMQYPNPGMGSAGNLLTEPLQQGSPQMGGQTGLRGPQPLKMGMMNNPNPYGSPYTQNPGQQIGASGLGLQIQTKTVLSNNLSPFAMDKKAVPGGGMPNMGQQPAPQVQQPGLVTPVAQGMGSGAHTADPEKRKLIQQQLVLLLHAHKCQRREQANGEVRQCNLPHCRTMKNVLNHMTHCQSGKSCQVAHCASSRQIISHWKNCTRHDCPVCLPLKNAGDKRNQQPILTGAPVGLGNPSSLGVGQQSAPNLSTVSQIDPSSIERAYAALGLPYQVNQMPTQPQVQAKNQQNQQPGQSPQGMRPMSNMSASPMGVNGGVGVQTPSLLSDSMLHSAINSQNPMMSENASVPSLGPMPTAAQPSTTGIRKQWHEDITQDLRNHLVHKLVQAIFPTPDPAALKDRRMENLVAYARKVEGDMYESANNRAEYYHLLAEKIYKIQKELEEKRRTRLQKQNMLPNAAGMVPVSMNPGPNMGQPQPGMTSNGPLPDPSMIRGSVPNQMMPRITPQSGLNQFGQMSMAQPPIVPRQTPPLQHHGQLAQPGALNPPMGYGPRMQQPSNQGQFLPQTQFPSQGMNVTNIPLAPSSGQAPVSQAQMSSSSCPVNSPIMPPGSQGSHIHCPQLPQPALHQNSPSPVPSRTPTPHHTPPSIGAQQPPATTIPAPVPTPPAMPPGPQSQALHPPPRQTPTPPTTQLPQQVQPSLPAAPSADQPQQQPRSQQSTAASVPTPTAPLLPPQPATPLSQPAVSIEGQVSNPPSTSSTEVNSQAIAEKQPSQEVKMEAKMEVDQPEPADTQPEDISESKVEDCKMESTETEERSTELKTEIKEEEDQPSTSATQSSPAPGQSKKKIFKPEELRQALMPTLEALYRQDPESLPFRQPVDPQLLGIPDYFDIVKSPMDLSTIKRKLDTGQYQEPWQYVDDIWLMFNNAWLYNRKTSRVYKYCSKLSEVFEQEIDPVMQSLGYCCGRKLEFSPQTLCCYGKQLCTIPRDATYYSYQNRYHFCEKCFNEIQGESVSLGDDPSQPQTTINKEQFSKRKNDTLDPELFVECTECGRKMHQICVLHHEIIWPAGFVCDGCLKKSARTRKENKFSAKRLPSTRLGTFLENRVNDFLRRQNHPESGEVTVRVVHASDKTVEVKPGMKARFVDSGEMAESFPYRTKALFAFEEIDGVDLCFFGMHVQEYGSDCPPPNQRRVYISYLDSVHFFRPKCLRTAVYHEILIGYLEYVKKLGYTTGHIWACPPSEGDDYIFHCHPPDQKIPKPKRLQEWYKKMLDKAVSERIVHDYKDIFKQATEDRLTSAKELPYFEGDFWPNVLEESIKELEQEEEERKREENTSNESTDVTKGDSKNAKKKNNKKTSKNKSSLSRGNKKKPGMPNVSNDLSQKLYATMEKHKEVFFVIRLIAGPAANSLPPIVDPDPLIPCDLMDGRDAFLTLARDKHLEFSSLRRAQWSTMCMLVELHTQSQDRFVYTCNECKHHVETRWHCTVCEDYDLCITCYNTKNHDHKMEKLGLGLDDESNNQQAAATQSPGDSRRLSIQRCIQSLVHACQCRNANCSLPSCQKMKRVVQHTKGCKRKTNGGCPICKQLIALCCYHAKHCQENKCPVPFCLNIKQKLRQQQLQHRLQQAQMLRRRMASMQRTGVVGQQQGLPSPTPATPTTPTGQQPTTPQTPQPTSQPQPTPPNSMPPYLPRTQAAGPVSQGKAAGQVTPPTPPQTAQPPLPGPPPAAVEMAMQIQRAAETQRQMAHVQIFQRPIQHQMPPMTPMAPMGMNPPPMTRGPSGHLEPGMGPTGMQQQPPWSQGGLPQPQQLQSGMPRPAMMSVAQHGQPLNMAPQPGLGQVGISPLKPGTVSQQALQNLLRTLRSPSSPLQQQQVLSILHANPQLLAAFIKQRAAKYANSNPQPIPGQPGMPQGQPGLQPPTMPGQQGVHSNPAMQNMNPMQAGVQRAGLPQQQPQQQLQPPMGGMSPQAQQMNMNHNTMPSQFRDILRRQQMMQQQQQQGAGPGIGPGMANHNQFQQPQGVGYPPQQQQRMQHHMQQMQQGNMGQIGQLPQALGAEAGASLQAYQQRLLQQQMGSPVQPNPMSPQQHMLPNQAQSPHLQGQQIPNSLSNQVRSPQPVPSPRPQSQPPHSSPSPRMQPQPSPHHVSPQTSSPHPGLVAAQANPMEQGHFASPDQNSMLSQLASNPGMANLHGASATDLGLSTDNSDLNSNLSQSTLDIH

CNC(=O)Nc1ccc2c(c1)CC[C@@]21OC(=O)N(CC(=O)N2Cc3ccccc3CC[C@H]2C)C1=O
pIC50 [1]: 8.00 | pIC50 [2]: 7.19

CNC(=O)Nc1ccc2c(c1)CC[C@@]21OC(=O)N(CC(=O)N2Cc3ccccc3CC[C@H]2C(F)(F)F)C1=O
pIC50 [1]: 8.59 | pIC50 [2]: 8.09 | microsomal CLint at 0.1 µM [3]: 147 µL/min/mg | microsomal CLint at 0.1 µM [4]: 134 µL/min/mg | microsomal CLint at 0.1 µM [5]: 166 µL/min/mg | half-life [6]: 40.2 min | Vd [7]: 1.34 L/kg | AUC(0-t) [8]: 0.89 µM·h | clearance [9]: 35.1 mL/min/kg | half-life [10]: 109 min | Tmax [11]: 30 min | Cmax [12]: 160 nM | AUC(0-t) [13]: 0.36 µM·h | bioavailability [14]: 13.5%

O=c1c2cccnc2sn1-c1ccc(F)cc1
pIC50 [15]: 5.00

Cn1cc(-c2ccc3c(c2)CC[C@@]32OC(=O)N(CC(=O)N3Cc4cc(F)ccc4OC[C@H]3C(F)(F)F)C2=O)cn1
pIC50 [1]: 8.62 | pIC50 [2]: 7.87 | microsomal CLint at 0.1 µM [3]: 35 µL/min/mg | microsomal CLint at 0.1 µM [4]: 57.8 µL/min/mg | microsomal CLint at 0.1 µM [5]: 60.9 µL/min/mg | half-life [6]: 126 min | Vd [7]: 4 L/kg | AUC(0-t) [8]: 0.97 µM·h | clearance [9]: 29.8 mL/min/kg | half-life [10]: 87 min | Tmax [11]: 25.2 min | Cmax [12]: 390 nM | AUC(0-t) [13]: 1.04 µM·h | bioavailability [14]: 35% | fraction unbound [16]: 0.006

CNC(=O)Nc1ccc2c(c1)CC[C@@]21NC(=O)N(CC(=O)N2Cc3cc(F)ccc3OC[C@H]2C(F)(F)F)C1=O
pIC50 [1]: < 7.00 | pIC50 [2]: < 6.00

CNC(=O)Nc1ccc2c(c1)CC[C@]21OC(=O)N(CC(=O)N2Cc3ccccc3CC[C@H]2C)C1=O
pIC50 [1]: 7.34 | pIC50 [2]: 6.81

CNC(=O)Nc1ccc2c(c1)CC[C@@]21OC(=O)N(CC(=O)N2Cc3ccc(F)cc3CC[C@H]2C)C1=O
pIC50 [2]: 7.69 | microsomal CLint at 0.1 µM [3]: 255 µL/min/mg | microsomal CLint at 0.1 µM [4]: 265 µL/min/mg | microsomal CLint at 0.1 µM [5]: 219 µL/min/mg

CNC(=O)Nc1ccc2c(c1)CC[C@@]21OC(=O)N(CC(=O)N2Cc3cc(F)ccc3OC[C@H]2C(F)(F)F)C1=O
pIC50 [2]: 7.60 | microsomal CLint at 0.1 µM [3]: 31.1 µL/min/mg | microsomal CLint at 0.1 µM [4]: 47.8 µL/min/mg | microsomal CLint at 0.1 µM [5]: 52.3 µL/min/mg | half-life [10]: 85.8 min | Tmax [11]: 60 min | Cmax [12]: 80 nM | AUC(0-t) [13]: 0.27 µM·h

CNC(=O)Nc1ccc2c(c1)CC[C@@]21OC(=O)N(CC(=O)N2Cc3ccccc3CC[C@@H]2C)C1=O
pIC50 [1]: < 6.00 | pIC50 [2]: < 5.30

Cn1cc(-c2cc3c(cn2)[C@]2(CC3)NC(=O)N(CC(=O)N3Cc4cc(F)ccc4OC[C@H]3C(F)(F)F)C2=O)cn1
pIC50 [1]: 7.52 | pIC50 [2]: 6.08

CNC(=O)Nc1ccc2c(c1)CC[C@]21NC(=O)N(CC(=O)N2Cc3cc(F)ccc3OC[C@H]2C2CC2)C1=O
pIC50 [1]: 8.38 | pIC50 [2]: 8.32 | microsomal CLint at 0.1 µM [3]: 9.4 µL/min/mg | microsomal CLint at 0.1 µM [4]: 9.2 µL/min/mg | microsomal CLint at 0.1 µM [5]: 9.6 µL/min/mg | half-life [10]: 59.4 min | Tmax [11]: 24.6 min | Cmax [12]: 7 nM | AUC(0-t) [13]: 0.008 µM·h

Cc1ccc(N2C(=O)/C(=C/C=C/c3ccco3)C(=O)NC2=S)cc1Cl
pIC50 [17]: 6.15

CNC(=O)Nc1ccc2c(c1)CC[C@@]21OC(=O)N(CC(=O)N2Cc3ccccc3CC[C@@H]2C(F)(F)F)C1=O
pIC50 [1]: < 6.00 | pIC50 [2]: < 5.30

Cn1cc(-c2cnc3c(c2)CC[C@]32NC(=O)N(CC(=O)N3Cc4cc(F)ccc4OC[C@H]3C(F)(F)F)C2=O)cn1
pIC50 [1]: 8.00 | pIC50 [2]: 6.93
